The target in one assay is PI3Kα (Homo sapiens (Human), UniProt P42336). The experiment in a line: Inhibition of PI3Kα efficacy assay (ADP-Glo kinase assay). Particulars: read-out: PI3Kα inhibitory activity (IC50). The assay is classed as biochemical. In short, it runs like this:
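Eight five-fold dilutions of compound (2 mM DMSO stock) tested; kinase reaction with PI and ATP ran 60 min at RT, followed by ADP-Glo and detection reagent steps of 40 min each. Four-parameter logistic fitting gave IC50 values.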
(ADP-Glo first removes unused ATP, then detects ADP through luciferase.)

For a further assay, the target named is KRAS^G12C-SOS1 (Homo sapiens (Human), UniProt P01116, G12C). The experiment in a line: HTRF KRAS G12C/SOS1 binding assay. Conditions: Table 5. On the procedure:
Initially, a 2 mM stock solution of the test compound (dissolved in DMSO) was serially diluted in five-fold concentrations using DMSO to obtain eight working solutions 1 (200×). Subsequently, each of the eight working solutions 1 was further diluted in a 20-fold gradient by adding 5 μL into 95 μL of Diluent buffer, mixed completely with vortex mixer, resulting in eight working solutions 2 (10×). […] Subsequently, 5 μL of Anti-tag 1-Tb^3+ stock solution and 5 μL of Anti-tag2-XL665 were added to each well, mixed, and incubated at 4° C. for 3 hours. Remove the plate and read on an HTRF® compatible reader, with the excitation light wavelength set at 337 nm and readings recorded at 620 nm and 665 nm. The data results were presented as the ratio of the 665 nm signal value to the 620 nm signal value for each well, calculated as follows: […]. The inhibition rate was calculated using the following formula: […]
Data were analyzed using GraphPad Prism with log (inhibitor) vs. response-Variable Slope (four parameters) fitting calculations for IC50 values.
(In TR-FRET formats the signal depends on donor and acceptor labels being close together.)

For another assay, the target named is PI3Kδ (Homo sapiens (Human), UniProt O00329). Kind of assay: Inhibition of PI3Kδ efficacy assay (ADP-Glo kinase assay). The assay is classed as biochemical. Particulars: read-out: PI3Kδ inhibitory activity (IC50). In outline:
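Luminescent ADP-Glo readout of PI3Kδ: after a 60 min RT reaction with PI/ATP substrate, ATP depletion (40 min) and ADP detection (40 min) steps followed. Compounds tested as eight five-fold serial dilutions; inhibition rates fitted to log(inhibitor) vs. response, variable slope, for IC50.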

For assay [1], the system named is NCI-H358 cells (KRAS G12C mutant). The experiment in a line: NCI-H358 cell proliferation inhibition (CellTiter-Glo). Format: cell-based. Conditions: Homo sapiens, NCI-H358, 72 h; H358 cells (G12C mutation), 3 days, Table 6; read-out: NCI-H358 (IC50). (In general: Cellular ATP, detected with luciferase, serves as a proxy for viable cell number.)
Assay [2] has as its system MIA PaCa-2 cells (KRAS G12C mutant). Kind of assay: MIA PaCa-2 cell anti-proliferation (CellTiter-Glo). Particulars: Homo sapiens, 72 h; MIA Paca-2 cells, 3 days, Table 7; read-out: MIA PaCa-2 (IC50). The assay is classed as cell-based. In short, it runs like this: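 Viable-cell luminescence (CellTiter-Glo, ≥30 min at 25 °C) measured after a 3-day, 37 °C exposure to compounds at 9 points, 4-fold spaced, in DMEM containing 10% FBS plus 2.5% horse serum. IC50 derived versus no-inhibitor wells.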

Assay [3] relates to NCI-H358-AMGR drug-resistant cell line. Kind of assay: NCI-H358-AMGR drug-resistant cell proliferation inhibitory activity test. The assay is classed as cell-based. Conditions: 72 h; NCI-H358-AMGR drug-resistant cells, 3 days incubation, CellTiter-Glo. On the procedure:
Test Example 6t Generation of NCI-H358-AMGR Drug-Resistant Cell Line
NCI-H358 cells were seeded and cultured at 50 to 70% confluence in six-well plate with RPMI-640 (10% FBS) medium at 37° C. with 5%4 CO2. AMG510 was added for induction at three starting concentrations of 1 nM, 10 nM and 50 nM, and the medium containing the same concentration of AMG510 was replaced every 3 days. Cells were passaged once they reached confluence. After every, two passages at a given concentration of drug, the concentration was increased in a 3-old increment until final concentrations of 1 μM for AMG510 was achieved.
(§1) NCI-H358-AMGR cells in logarithmic growth phase were collected and seeded into a clear-bottom 96-well plate at a density of 4×10^3 cells per well in 80 μL of medium, and then incubated overnight at 37° C. with 5% CO2. The compounds were serially diluted 5-fold in DMSO to obtain 8 concentrations, and then further diluted with RPMI-640) (10% FBS) cell culture medium to obtain the working solutions (5×), 20 μL of each working solution was added to the cell culture supernatant in each well, and the plate was further incubated for 3 days at 37° C. with 5% CO2. The plate was then equilibrated with CellTiter-Glo® reagent at room temperature (25° C.) for 10-30 minutes. After aspirating 50 μL of the medium, 50 μL of CellTiter-Glo®, reagent was added. The cells were thoroughly mixed with the CellTiter-Glo®, reagent using a microplate shaker for 2 minutes, and then incubated at room temperature for 10 minutes. The %-well plate was placed in a multi-mode microplate reader to record the luminescence values (RLU).
(§2) The inhibitory rate was calculated using the following formula: […]
Data were analyzed using GraphPad Prism for IC50 values (Note: The negative control refers to the group without inhibitor).

The test system of assay [4] is MIA PaCa-2-AMGR drug-resistant cell line. Kind of assay: MIA PaCa-2-AMGR drug-resistant cell proliferation inhibitory activity test. Conditions: 72 h, MIA PaCa-2-AMGR drug-resistant cells, 3 days incubation, CellTiter-Glo. Format: cell-based. Here is the method:
Test Example 7: Generation of MIA PaCa-2-AMGR drug-resistant cell line
MIA PaCa-2 cells were seeded and cultured at 50 to 70% confluence in six-well plate with DMEM (10% FBS+2.5% horse serum) medium at 37° C. with 5% CO2. AMG510 was added for induction at three starting concentrations of 1 nM, 10 nM and 50 nM, and the medium containing the same concentration of AMG510 was replaced every 3 days. Cells were passaged once they reached confluence. After every two passages at a given concentration of drug, the concentration was increased in a 3-fold increment until final concentrations of 1 μM for AMG510 was achieved.
as §1, with “MIA PaCa-2-AMGR” for “NCI-H358-AMGR”, “DMEM” for “RPMI-640)”, “FBS+2.5% horse serum)” for “FBS)”, “CellTiter-Glo®” for “CellTiter-Glo®,”, “96-well” for “%-well”
as §2
Data were analyzed using GraphPad Prism for IC50 values (Note: The negative control refers to the group without inhibitor) The data were presented m Table 9

Broadly, the IC50 is the concentration that gives 50% inhibition.

The structures appear in SMILES notation. Like-named read-outs stand apart in the source and are kept apart here.

Chain of PI3Kδ (O00329 whole entry): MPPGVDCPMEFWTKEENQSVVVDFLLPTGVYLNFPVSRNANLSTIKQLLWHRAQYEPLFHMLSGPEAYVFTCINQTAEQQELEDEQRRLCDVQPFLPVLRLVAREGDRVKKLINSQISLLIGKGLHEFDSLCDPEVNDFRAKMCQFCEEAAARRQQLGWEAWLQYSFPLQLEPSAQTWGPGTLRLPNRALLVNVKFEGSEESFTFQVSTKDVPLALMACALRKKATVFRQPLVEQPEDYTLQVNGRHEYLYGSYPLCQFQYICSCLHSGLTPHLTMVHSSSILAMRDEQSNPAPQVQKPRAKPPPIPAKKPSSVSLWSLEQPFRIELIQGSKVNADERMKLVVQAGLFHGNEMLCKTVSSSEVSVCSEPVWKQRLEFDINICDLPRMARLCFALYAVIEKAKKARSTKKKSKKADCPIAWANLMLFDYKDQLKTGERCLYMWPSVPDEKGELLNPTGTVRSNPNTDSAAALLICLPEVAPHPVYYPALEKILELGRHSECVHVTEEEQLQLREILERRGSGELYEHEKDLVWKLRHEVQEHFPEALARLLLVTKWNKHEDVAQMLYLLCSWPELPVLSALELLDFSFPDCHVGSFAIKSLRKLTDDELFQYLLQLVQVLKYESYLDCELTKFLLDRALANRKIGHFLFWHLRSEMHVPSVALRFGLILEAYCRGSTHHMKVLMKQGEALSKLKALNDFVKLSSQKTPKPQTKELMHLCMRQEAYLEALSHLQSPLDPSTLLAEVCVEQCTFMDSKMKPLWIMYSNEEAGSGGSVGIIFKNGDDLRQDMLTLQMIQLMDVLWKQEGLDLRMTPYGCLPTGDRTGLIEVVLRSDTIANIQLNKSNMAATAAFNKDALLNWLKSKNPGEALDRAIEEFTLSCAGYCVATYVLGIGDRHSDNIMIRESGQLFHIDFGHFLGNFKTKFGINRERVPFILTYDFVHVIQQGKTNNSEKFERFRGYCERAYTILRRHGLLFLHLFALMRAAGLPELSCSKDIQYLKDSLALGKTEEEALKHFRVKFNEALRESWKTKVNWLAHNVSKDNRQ
Chain of PI3Kδ (P27986 whole entry partner): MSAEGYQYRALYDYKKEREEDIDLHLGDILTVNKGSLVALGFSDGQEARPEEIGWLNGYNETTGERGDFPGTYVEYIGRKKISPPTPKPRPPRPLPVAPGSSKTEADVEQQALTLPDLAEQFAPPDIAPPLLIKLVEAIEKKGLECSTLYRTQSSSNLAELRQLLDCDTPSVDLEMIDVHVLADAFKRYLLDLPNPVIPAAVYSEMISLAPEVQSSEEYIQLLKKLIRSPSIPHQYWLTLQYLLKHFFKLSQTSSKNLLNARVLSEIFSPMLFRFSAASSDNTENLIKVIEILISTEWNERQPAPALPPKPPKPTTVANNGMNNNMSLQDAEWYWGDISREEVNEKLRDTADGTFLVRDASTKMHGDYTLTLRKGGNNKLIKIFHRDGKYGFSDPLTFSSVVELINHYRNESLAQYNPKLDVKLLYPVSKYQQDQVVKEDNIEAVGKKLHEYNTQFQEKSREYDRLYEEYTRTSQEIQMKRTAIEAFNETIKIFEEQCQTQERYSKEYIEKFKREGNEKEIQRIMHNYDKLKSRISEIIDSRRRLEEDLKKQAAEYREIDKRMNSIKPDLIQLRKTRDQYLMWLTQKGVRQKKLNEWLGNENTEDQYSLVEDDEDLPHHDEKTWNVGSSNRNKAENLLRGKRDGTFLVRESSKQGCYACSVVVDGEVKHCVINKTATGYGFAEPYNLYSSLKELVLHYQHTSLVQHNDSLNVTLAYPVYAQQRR
Chain of KRAS^G12C-SOS1 (P01116-2 other isoform, or with tags, fused parts or gaps G12C): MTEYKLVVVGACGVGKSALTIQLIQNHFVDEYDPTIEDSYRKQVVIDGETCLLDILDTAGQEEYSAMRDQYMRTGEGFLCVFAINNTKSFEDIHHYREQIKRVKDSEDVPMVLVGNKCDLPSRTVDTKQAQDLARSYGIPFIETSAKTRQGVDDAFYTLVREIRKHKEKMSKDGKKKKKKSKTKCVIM
Chain of PI3Kα (P42336 whole entry): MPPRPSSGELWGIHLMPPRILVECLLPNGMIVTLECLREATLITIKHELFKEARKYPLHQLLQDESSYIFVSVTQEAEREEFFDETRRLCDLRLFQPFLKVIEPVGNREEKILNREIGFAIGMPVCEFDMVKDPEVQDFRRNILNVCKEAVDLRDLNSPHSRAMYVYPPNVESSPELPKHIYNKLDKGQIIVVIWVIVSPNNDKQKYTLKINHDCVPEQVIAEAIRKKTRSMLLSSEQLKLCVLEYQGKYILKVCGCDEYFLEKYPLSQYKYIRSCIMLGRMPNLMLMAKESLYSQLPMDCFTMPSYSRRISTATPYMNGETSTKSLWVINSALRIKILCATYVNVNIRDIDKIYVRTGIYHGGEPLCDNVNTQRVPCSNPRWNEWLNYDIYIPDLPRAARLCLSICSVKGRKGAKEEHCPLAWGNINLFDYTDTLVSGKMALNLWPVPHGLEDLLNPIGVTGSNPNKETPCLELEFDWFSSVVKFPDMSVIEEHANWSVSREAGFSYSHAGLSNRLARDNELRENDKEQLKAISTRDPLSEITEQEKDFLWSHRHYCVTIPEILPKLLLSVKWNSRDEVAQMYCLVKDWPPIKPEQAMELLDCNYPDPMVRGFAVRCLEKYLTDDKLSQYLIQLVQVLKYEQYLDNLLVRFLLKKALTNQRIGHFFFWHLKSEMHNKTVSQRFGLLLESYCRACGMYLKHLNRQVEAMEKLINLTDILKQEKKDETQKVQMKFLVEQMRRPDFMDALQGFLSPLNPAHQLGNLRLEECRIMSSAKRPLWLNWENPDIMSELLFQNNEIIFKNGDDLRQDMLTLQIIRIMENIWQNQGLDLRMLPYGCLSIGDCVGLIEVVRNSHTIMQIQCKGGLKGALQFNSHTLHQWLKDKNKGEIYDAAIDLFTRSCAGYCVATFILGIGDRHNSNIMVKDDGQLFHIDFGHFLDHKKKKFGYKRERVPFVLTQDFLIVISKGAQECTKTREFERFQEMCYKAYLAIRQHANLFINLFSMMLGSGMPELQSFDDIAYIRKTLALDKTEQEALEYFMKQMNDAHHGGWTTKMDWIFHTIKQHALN
Chain of PI3Kα (P27986 whole entry partner): as the sequence (P27986 whole entry partner) above

As for `COc1ncc(-c2ccc3ncnc(C4CCN(C(=O)/C=C/C(C)=O)C4)c3c2)cc1NS(=O)(=O)c1ccc(F)cc1F` (centres unmarked) [Example 247, (E)-2,4-difluoro-N-(2-methoxy-5-(4-(1-(4-oxopent-2-enoyl)pyrrolidin-3-yl)quinazolin-6-yl)pyridin-3-yl)benzenesulfonamide], the IC50 at PI3Kα (Table 4) stood at 0.53 nM; on KRAS^G12C-SOS1, 277 nM; at PI3Kδ (Table 4) it was 3.33 nM.

As to `CNC(=O)/C=C/C(=O)N1CCN(c2ncnc3ccc(-c4cnc(OC)c(NS(=O)(=O)c5ccc(F)cc5F)c4)cc23)CC1` [Example 179, (E)-4-(4-(6-(5-((2,4-difluorophenyl)sulfonamido)-6-methoxy-pyridin-3-yl)quinazolin-4-yl)piperazin-1-yl)-N-methyl-4-oxobut-2-enamide], the half-maximal inhibitory concentration (IC50) at PI3Kα (Table 4) was determined as 0.37 nM; at KRAS^G12C-SOS1 it was 147 nM; in assay [1] it was 276 nM; in assay [2], 87.8 nM.

As for `COc1ncc(-c2ccc3ncnc(C4=CCN(C(=O)/C=C/C(C)=O)CC4)c3n2)cc1NS(=O)(=O)c1c(F)cccc1Cl` [Example 241, (E)-2-chloro-6-fluoro-N-(2-methoxy-5-(4-(1-(4-oxopent-2-enoyl)-1,2,3,6-tetrahydropyridin-4-yl)pyrido[3,2-d]pyrimidin-6-yl)pyridin-3-yl)benzenesulfonamide], the IC50 is 0.27 nM on PI3Kα (Table 4), 454 nM at KRAS^G12C-SOS1 and 2.96 nM on PI3Kδ (Table 4).

In the case of `COc1ncc(-c2ccc3ncnc(C4CCN(C(=O)/C=C/C(C)=O)CC4)c3n2)cc1NS(=O)(=O)c1c(F)cccc1Cl` [Example 235, (E)-2-chloro-6-fluoro-N-(2-methoxy-5-(4-(1-(4-oxopent-2-enoyl)piperidin-4-yl)pyrido[3,2-d]pyrimidin-6-yl)pyridin-3-yl)benzenesulfonamide], the IC50 at PI3Kα (Table 4) turned out to be 0.3 nM; on KRAS^G12C-SOS1, 113 nM; on PI3Kδ (Table 4), 2.38 nM.

In the case of `CC(=O)/C=C/C(=O)N1CCN(c2ncnc3ccc(-c4cnc(Cl)c(NS(=O)(=O)c5ccc(F)cc5F)c4)cc23)CC1` [Example 34, (E)-N-(2-chloro-5-(4-(4-(4-oxopent-2-enoyl)piperazin-1-yl)quinazolin-6-yl)pyridin-3-yl)-2,4-difluorobenzenesulfonamide], the IC50 at PI3Kα (Table 1) turned out to be 1.4 nM; on KRAS^G12C-SOS1, 521 nM; in assay [2] it was 254 nM; on PI3Kδ (Table 1), 20.8 nM.

Turning to `COc1ncc(-c2ccc3ncnc(C4=CCN(C(=O)/C=C/C(C)=O)CC4)c3n2)cc1NS(=O)(=O)c1c(F)cc(F)cc1F` [Example 236, (E)-2,4,6-trifluoro-N-(2-methoxy-5-(4-(1-(4-oxopent-2-enoyl)-1,2,3,6-tetrahydropyridin-4-yl)pyrido[3,2-d]pyrimidin-6-yl)pyridin-3-yl)benzenesulfonamide], the IC50 in assay [3] turned out to be 44.7 nM; on PI3Kα (Table 4) it was 1.7 nM; in assay [4], 28.8 nM; in assay [1] it was 19.5 nM; in assay [2], 34.6 nM.

On to `C=CC(=O)N1CCN(c2ncnc3ccc(-c4cnc(OC)c(NS(=O)(=O)c5ccc(F)cc5F)c4)cc23)CC1` [Example 1, N-(5-(4-(4-acryloylpiperazin-1-yl)quinazolin-6-yl)-2-methoxypyridin-3-yl)-2,4-difluorobenzenesulfonamide], for which the half-inhibitory concentration (IC50) in assay [3] was 27 nM; on PI3Kα (Table 1), 0.26 nM; in assay [4] it was 36 nM; in assay [1] it was 21 nM; in assay [2] it was 98 nM.

`COc1ncc(-c2ccc3ncnc(N4[C@H](C)CN(C(=O)/C=C/C(C)=O)C[C@@H]4C)c3c2)cc1NS(=O)(=O)c1ccccc1F` [Example 193, N-(5-(4-((2R,6S)-2,6-dimethyl-4-((E)-4-oxopent-2-enoyl)piperazin-1-yl)quinazolin-6-yl)-2-methoxypyridin-3-yl)-2-fluorobenzenesulfonamide]: the IC50 turned out to be 21.6 nM in assay [3]; 2.8 nM on PI3Kα (Table 4); 66.2 nM in assay [4]; 52.7 nM in assay [1]; 115 nM in assay [2].

For the origin of these results see patent publication US20250145589A1, “PYRIDINE DERIVATIVE AND USE THEREOF” (SICHUAN HUIYU PHARMACEUTICAL CO., LTD., priority 2021, published 2025).
